Assay results taken from PubChem BioAssay (NCI).
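GI50: concentration for 50% inhibition of growth. TGI denotes the concentration required for complete inhibition of growth.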

Columns and labels:
Assay in all cases: NCI-60 cell line screen, 384-well format
HS 578T breast = system: HS 578T breast
RXF 393 renal = system: RXF 393 renal
SK-OV-3 ovarian = system: SK-OV-3 ovarian
NCI-H23 lung = system: NCI-H23 lung
IGROV1 ovarian = system: IGROV1 ovarian
MDA-MB-435 melanoma = system: MDA-MB-435 melanoma
NCI-H460 NSCLC = system: NCI-H460 NSCLC
SK-MEL-28 melanoma = system: SK-MEL-28 melanoma
PC-3 prostate = system: PC-3 prostate
OVCAR-3 ovarian = system: OVCAR-3 ovarian
OVCAR-4 ovarian = system: OVCAR-4 ovarian
RPMI-8226 leukemia = system: RPMI-8226 leukemia
CCRF-CEM leukemia = system: CCRF-CEM leukemia
U251 glioblastoma = system: U251 glioblastoma
HL-60(TB) leukemia = system: HL-60(TB) leukemia
A498 renal = system: A498 renal
HOP-62 NSCLC = system: HOP-62 NSCLC
NCI-H226 lung = system: NCI-H226 lung
ACHN renal = system: ACHN renal
UO-31 renal = system: UO-31 renal
SF-539 CNS = system: SF-539 CNS
SW-620 colon = system: SW-620 colon
SN12C renal = system: SN12C renal
K-562 leukemia = system: K-562 leukemia
T-47D breast = system: T-47D breast
CAKI-1 renal = system: CAKI-1 renal
NCI/ADR-RES ovarian = system: NCI/ADR-RES ovarian
MDA-MB-468 breast = system: MDA-MB-468 breast
SR leukemia = system: SR leukemia
MDA-MB-231 breast = system: MDA-MB-231 breast
KM12 colon = system: KM12 colon
MOLT-4 leukemia = system: MOLT-4 leukemia
HCT-15 colon = system: HCT-15 colon
BT-549 breast = system: BT-549 breast
SNB-75 CNS = system: SNB-75 CNS
EKVX NSCLC = system: EKVX NSCLC
SF-295 CNS = system: SF-295 CNS
LOX IMVI melanoma = system: LOX IMVI melanoma
OVCAR-5 ovarian = system: OVCAR-5 ovarian
COLO 205 colon = system: COLO 205 colon
TK-10 renal = system: TK-10 renal
MALME-3M melanoma = system: MALME-3M melanoma
786-0 renal = system: 786-0 renal
HOP-92 NSCLC = system: HOP-92 NSCLC
DU-145 prostate = system: DU-145 prostate
NCI-H522 lung = system: NCI-H522 lung
SF-268 CNS = system: SF-268 CNS
SK-MEL-2 melanoma = system: SK-MEL-2 melanoma
UACC-257 melanoma = system: UACC-257 melanoma
HT29 colon = system: HT29 colon
HCT-116 colon = system: HCT-116 colon
NCI-H322M lung = system: NCI-H322M lung
SK-MEL-5 melanoma = system: SK-MEL-5 melanoma
M14 melanoma = system: M14 melanoma
UACC-62 melanoma = system: UACC-62 melanoma
MCF7 breast = system: MCF7 breast
HCC-2998 colon = system: HCC-2998 colon
A549 NSCLC = system: A549 NSCLC
SNB-19 CNS = system: SNB-19 CNS

In the case of `CN1CCN(c2ccc3nc(-c4c5cccccc-5[nH]c4=O)[nH]c3c2)CC1`, the GI50 (HS 578T breast) is reported as 4.73 µM, the TGI (HS 578T breast) is reported as 18.4 µM and the GI50 (RXF 393 renal) is reported as 2.7 µM. The TGI (RXF 393 renal) was 8.68 µM, the GI50 (SK-OV-3 ovarian) was 5.76 µM and the TGI (SK-OV-3 ovarian) was 23.7 µM. For the same compound, the GI50 (NCI-H23 lung) was 7.46 µM, the TGI (NCI-H23 lung) was 26.8 µM and the GI50 (IGROV1 ovarian) was 3.84 µM. It also gave a TGI (IGROV1 ovarian) of 15.6 µM, a GI50 (MDA-MB-435 melanoma) of 11.9 µM and a TGI (MDA-MB-435 melanoma) of 31.9 µM. For the same compound, the GI50 (NCI-H460 NSCLC) was 3.65 µM, the TGI (NCI-H460 NSCLC) was 13.8 µM and the GI50 (SK-MEL-28 melanoma) was 15.9 µM. For the same compound, the TGI (SK-MEL-28 melanoma) was 35 µM, the GI50 (PC-3 prostate) was 6.81 µM and the TGI (PC-3 prostate) was 25.3 µM. For the same compound, the GI50 (OVCAR-3 ovarian) was 12.3 µM, the TGI (OVCAR-3 ovarian) was 28.2 µM and the GI50 (OVCAR-4 ovarian) was 10.3 µM. The TGI (OVCAR-4 ovarian) was 38.6 µM, the GI50 (RPMI-8226 leukemia) was 10 µM and the TGI (RPMI-8226 leukemia) was 21.7 µM. For the same compound, the GI50 (CCRF-CEM leukemia) was 3.47 µM, the TGI (CCRF-CEM leukemia) was 10.7 µM and the GI50 (U251 glioblastoma) was 5.62 µM. For the same compound, the TGI (U251 glioblastoma) was 22.2 µM, the GI50 (HL-60(TB) leukemia) was 3.83 µM and the TGI (HL-60(TB) leukemia) was 12.4 µM. The GI50 (A498 renal) was 12.7 µM, the TGI (A498 renal) was 26.3 µM and the GI50 (HOP-62 NSCLC) was 4.43 µM. It also gave a TGI (HOP-62 NSCLC) of 20.9 µM, a GI50 (NCI-H226 lung) of 4.07 µM and a TGI (NCI-H226 lung) of 18 µM. The GI50 (ACHN renal) was 4.63 µM, the TGI (ACHN renal) was 16.8 µM and the GI50 (UO-31 renal) was 6.3 µM. The TGI (UO-31 renal) was 19.2 µM, the GI50 (SF-539 CNS) was 3.66 µM and the TGI (SF-539 CNS) was 13.2 µM. The GI50 (SW-620 colon) was 6.59 µM, the TGI (SW-620 colon) was 24.9 µM and the GI50 (SN12C renal) was 3.39 µM. For the same compound, the TGI (SN12C renal) was 17.8 µM, the GI50 (K-562 leukemia) was 4.85 µM and the TGI (K-562 leukemia) was 16.7 µM. It also gave a GI50 (T-47D breast) of 16.9 µM, a TGI (T-47D breast) of 37.9 µM and a GI50 (CAKI-1 renal) of 5.23 µM. It also gave a TGI (CAKI-1 renal) of 18.2 µM, a GI50 (NCI/ADR-RES ovarian) of 16.7 µM and a TGI (NCI/ADR-RES ovarian) of 47.1 µM. For the same compound, the GI50 (MDA-MB-468 breast) was 5.61 µM, the TGI (MDA-MB-468 breast) was 21 µM and the GI50 (SR leukemia) was 2.17 µM. The TGI (SR leukemia) was 4.45 µM, the GI50 (MDA-MB-231 breast) was 5.78 µM and the TGI (MDA-MB-231 breast) was 22.1 µM. For the same compound, the GI50 (KM12 colon) was 0.371 µM, the TGI (KM12 colon) was 10.7 µM and the GI50 (MOLT-4 leukemia) was 1.8 µM. It also gave a TGI (MOLT-4 leukemia) of 3.2 µM, a GI50 (HCT-15 colon) of 7.04 µM and a TGI (HCT-15 colon) of 26.4 µM. For the same compound, the GI50 (BT-549 breast) was 4.48 µM, the TGI (BT-549 breast) was 14.6 µM and the GI50 (SNB-75 CNS) was 3.71 µM. It also gave a TGI (SNB-75 CNS) of 17.6 µM, a GI50 (EKVX NSCLC) of 10.1 µM and a TGI (EKVX NSCLC) of 33.3 µM. The GI50 (SF-295 CNS) was 12.2 µM, the TGI (SF-295 CNS) was 32 µM and the GI50 (LOX IMVI melanoma) was 10.7 µM. The TGI (LOX IMVI melanoma) was 22.7 µM, the GI50 (OVCAR-5 ovarian) was 10.5 µM and the TGI (OVCAR-5 ovarian) was 33.4 µM. The GI50 (COLO 205 colon) was 5.27 µM, the TGI (COLO 205 colon) was 17.7 µM and the GI50 (TK-10 renal) was 4.51 µM. For the same compound, the TGI (TK-10 renal) was 19.3 µM, the GI50 (MALME-3M melanoma) was 11 µM and the TGI (MALME-3M melanoma) was 23.1 µM. It also gave a GI50 ([…]-0 renal) of 7.07 µM, a TGI (786-0 renal) of 28.1 µM and a GI50 (HOP-92 NSCLC) of 3.99 µM. It also gave a TGI (HOP-92 NSCLC) of 16.7 µM, a GI50 (DU-145 prostate) of 6.01 µM and a TGI (DU-145 prostate) of 26.7 µM. For the same compound, the GI50 (NCI-H522 lung) was 9.06 µM, the TGI (NCI-H522 lung) was 29.6 µM and the GI50 (SF-268 CNS) was 10.3 µM. For the same compound, the TGI (SF-268 CNS) was 31.8 µM, the GI50 (SK-MEL-2 melanoma) was 28.6 µM and the TGI (SK-MEL-2 melanoma) was 44.4 µM. The GI50 (UACC-257 melanoma) was 9.05 µM, the TGI (UACC-257 melanoma) was 21.4 µM and the GI50 (HT29 colon) was 6.92 µM. For the same compound, the TGI (HT29 colon) was 23.9 µM, the GI50 (HCT-116 colon) was 12.1 µM and the TGI (HCT-116 colon) was 25.3 µM. The GI50 (NCI-H322M lung) was 10.4 µM, the TGI (NCI-H322M lung) was 33.6 µM and the GI50 (SK-MEL-5 melanoma) was 8.18 µM. The TGI (SK-MEL-5 melanoma) was 21 µM, the GI50 (M14 melanoma) was 9.46 µM and the TGI (M14 melanoma) was 21.4 µM. It also gave a GI50 (UACC-62 melanoma) of 8.99 µM, a TGI (UACC-62 melanoma) of 21.2 µM and a GI50 (MCF7 breast) of 7.26 µM. It also gave a TGI (MCF7 breast) of 21.3 µM, a GI50 (HCC-2998 colon) of 7.05 µM and a TGI (HCC-2998 colon) of 29.1 µM. For the same compound, the GI50 (A549 NSCLC) was 6.49 µM, the TGI (A549 NSCLC) was 38.1 µM and the GI50 (SNB-19 CNS) was 10.3 µM. For the same compound, the TGI (SNB-19 CNS) was 39.2 µM.
